Data reported in ChEMBL document CHEMBL3046381, “Synthesis and Fungicidal Activity of New Six-membered Cyclic Phosphates” (1995).

How the values were obtained:
Type in all cases: functional
Pythium [1] = test: Growth inhibition of Pythium sp. at 1000 ppm by agar dilution method; settings: read-out: GI
Pythium [2] = test: Growth inhibition of Pythium sp. at 100 ppm by agar dilution method; settings: read-out: GI
Athelia rolfsii [3] = test: Growth inhibition of Athelia rolfsii at 100 ppm by agar dilution method; settings: Agroathelia rolfsii; read-out: GI
Athelia rolfsii [4] = test: Growth inhibition of Athelia rolfsii at 1000 ppm by agar dilution method; settings: Agroathelia rolfsii; read-out: GI
Pythium [5] = test: Growth inhibition of Pythium sp. at 50 ppm by agar dilution method; settings: read-out: GI
Pythium [6] = test: Growth inhibition of Pythium sp. at 10 ppm by agar dilution method; settings: read-out: GI
Athelia rolfsii [7] = test: Growth inhibition of Athelia rolfsii at 10 ppm by agar dilution method; settings: Agroathelia rolfsii; read-out: GI
Athelia rolfsii [8] = test: Growth inhibition of Athelia rolfsii at 50 ppm by agar dilution method; settings: Agroathelia rolfsii; read-out: GI

With `CC(C)c1ccc2c(c1)COP(=S)(OCCc1ccccc1)O2` (stereo not given) the inhibition of growth at 1000 ppm (Pythium [1]) was 100%, the inhibition of growth at 100 ppm (Pythium [2]) was 74.6% and the inhibition of growth at 100 ppm (Athelia rolfsii [3]) was 30.6%. The inhibition of growth at 1000 ppm (Athelia rolfsii [4]) was 100%.

`CC(C)=CCCC(C)CCOP1(=S)OCc2ccccc2O1` (stereo not given) was tested, and the inhibition of growth at 1000 ppm (Pythium [1]) was 96%, the inhibition of growth at 100 ppm (Pythium [2]) was 38.8% and the inhibition of growth at 100 ppm (Athelia rolfsii [3]) was 36.6%. For the same compound, the inhibition of growth at 1000 ppm (Athelia rolfsii [4]) was 100%.

Compound `C=CCc1ccc(OP2(=S)OCc3cc(C(C)C)ccc3O2)c(OC)c1` (stereo not given) has an inhibition of growth at 1000 ppm (Pythium [1]) of 83.9%, an inhibition of growth at 100 ppm (Pythium [2]) of 22.9% and an inhibition of growth at 100 ppm (Athelia rolfsii [3]) of 18.8%. It also gave an inhibition of growth at 1000 ppm (Athelia rolfsii [4]) of 71.2%.

For `Cc1ccc(OP2(=S)OCc3ccccc3O2)c(C(C)C)c1` (stereo not given), the inhibition of growth at 1000 ppm (Pythium [1]) was 80.8%, the inhibition of growth at 100 ppm (Pythium [2]) was 0% and the inhibition of growth at 100 ppm (Athelia rolfsii [3]) was 37.3%. For the same compound, the inhibition of growth at 1000 ppm (Athelia rolfsii [4]) was 83.3%.

Compound `Cc1ccc(C(C)C)c(OP2(=S)OCc3ccccc3O2)c1` (stereo not given) has an inhibition of growth at 1000 ppm (Pythium [1]) of 100%, an inhibition of growth at 100 ppm (Pythium [2]) of 45.2% and an inhibition of growth at 100 ppm (Athelia rolfsii [3]) of 27.7%. For the same compound, the inhibition of growth at 1000 ppm (Athelia rolfsii [4]) was 99.8%.

Work on `Cc1ccc(C(C)C)c(OP2(=S)OCc3ccccc3O2)c1Cl` (stereo not given) yielded an inhibition of growth at 1000 ppm (Pythium [1]) of 97.4%, an inhibition of growth at 100 ppm (Pythium [2]) of 27.9% and an inhibition of growth at 100 ppm (Athelia rolfsii [3]) of 12.3%. The inhibition of growth at 1000 ppm (Athelia rolfsii [4]) was 85.5%.

`C=CCc1ccc(OP2(=S)OCc3ccccc3O2)c(OC)c1` (stereo not given) showed an inhibition of growth at 1000 ppm (Pythium [1]) of 87.4%, an inhibition of growth at 100 ppm (Pythium [2]) of 28.6% and an inhibition of growth at 100 ppm (Athelia rolfsii [3]) of 25.5%. For the same compound, the inhibition of growth at 1000 ppm (Athelia rolfsii [4]) was 100%.

Compound `O=P1(Oc2ccccc2)OCc2ccccc2O1` (stereo not given) has an inhibition of growth at 1000 ppm (Pythium [1]) of 100%, an inhibition of growth at 100 ppm (Pythium [2]) of 76% and an inhibition of growth at 100 ppm (Athelia rolfsii [3]) of 2.1%. The inhibition of growth at 1000 ppm (Athelia rolfsii [4]) was 88.7%.

Work on `S=P1(OCCc2ccccc2)OCc2ccccc2O1` (stereo not given) yielded an inhibition of growth at 1000 ppm (Pythium [1]) of 100%, an inhibition of growth at 100 ppm (Pythium [2]) of 70.1% and an inhibition of growth at 100 ppm (Athelia rolfsii [3]) of 81.6%. The inhibition of growth at 1000 ppm (Athelia rolfsii [4]) was 100%.

`CCCCCCCOP1(=S)OCc2ccccc2O1` (stereo not given) gave an inhibition of growth at 1000 ppm (Pythium [1]) of 100%, an inhibition of growth at 100 ppm (Pythium [2]) of 42.4% and an inhibition of growth at 100 ppm (Athelia rolfsii [3]) of 52.6%. It also gave an inhibition of growth at 1000 ppm (Athelia rolfsii [4]) of 100%.

In the case of `CCCCCCCCCCCOP1(=S)OCc2ccccc2O1` (stereo not given), the inhibition of growth at 1000 ppm (Pythium [1]) is reported as 100%, the inhibition of growth at 100 ppm (Pythium [2]) is reported as 0% and the inhibition of growth at 100 ppm (Athelia rolfsii [3]) is reported as 25%. It also gave an inhibition of growth at 1000 ppm (Athelia rolfsii [4]) of 88.1%.

With `CCCCCCCCCCCCCOP1(=S)OCc2ccccc2O1` (stereo not given) the inhibition of growth at 1000 ppm (Pythium [1]) was 100%, the inhibition of growth at 100 ppm (Pythium [2]) was 6.3% and the inhibition of growth at 100 ppm (Athelia rolfsii [3]) was 3.1%. It also gave an inhibition of growth at 1000 ppm (Athelia rolfsii [4]) of 100%.

`CCCCCCCCCCCCCCCOP1(=S)OCc2ccccc2O1` (stereo not given) showed an inhibition of growth at 1000 ppm (Pythium [1]) of 86%, an inhibition of growth at 100 ppm (Pythium [2]) of 24.9% and an inhibition of growth at 100 ppm (Athelia rolfsii [3]) of 6%. For the same compound, the inhibition of growth at 1000 ppm (Athelia rolfsii [4]) was 32.3%.

Work on `CCc1ccc2c(c1)COP(=S)(OC)O2` (stereo not given) yielded an inhibition of growth at 50 ppm (Pythium [5]) of 64.4%, an inhibition of growth at 10 ppm (Pythium [6]) of 1.9% and an inhibition of growth at 1000 ppm (Pythium [1]) of 96%. For the same compound, the inhibition of growth at 100 ppm (Pythium [2]) was 91.1%, the inhibition of growth at 10 ppm (Athelia rolfsii [7]) was 24.6% and the inhibition of growth at 100 ppm (Athelia rolfsii [3]) was 100%. For the same compound, the inhibition of growth at 50 ppm (Athelia rolfsii [8]) was 92.4% and the inhibition of growth at 1000 ppm (Athelia rolfsii [4]) was 100%.

For `CCc1ccc2c(c1)COP(=O)(Oc1ccccc1)O2` (stereo not given), the inhibition of growth at 50 ppm (Pythium [5]) was 78.6%, the inhibition of growth at 10 ppm (Pythium [6]) was 38.5% and the inhibition of growth at 1000 ppm (Pythium [1]) was 98.7%. The inhibition of growth at 100 ppm (Pythium [2]) was 89.1%, the inhibition of growth at 10 ppm (Athelia rolfsii [7]) was 26.6% and the inhibition of growth at 100 ppm (Athelia rolfsii [3]) was 100%. The inhibition of growth at 50 ppm (Athelia rolfsii [8]) was 57.6% and the inhibition of growth at 1000 ppm (Athelia rolfsii [4]) was 100%.

Compound `CCc1ccc2c(c1)COP(=S)(Oc1ccc(C)cc1C(C)C)O2` (stereo not given) has an inhibition of growth at 1000 ppm (Pythium [1]) of 100%, an inhibition of growth at 100 ppm (Pythium [2]) of 49.5% and an inhibition of growth at 100 ppm (Athelia rolfsii [3]) of 88.6%. For the same compound, the inhibition of growth at 1000 ppm (Athelia rolfsii [4]) was 100%.

With `CCc1ccc2c(c1)COP(=S)(Oc1cc(C)ccc1C(C)C)O2` (stereo not given) the inhibition of growth at 1000 ppm (Pythium [1]) was 96.8%, the inhibition of growth at 100 ppm (Pythium [2]) was 41.7% and the inhibition of growth at 100 ppm (Athelia rolfsii [3]) was 30.4%. It also gave an inhibition of growth at 1000 ppm (Athelia rolfsii [4]) of 100%.

Work on `CCc1ccc2c(c1)COP(=S)(OCCc1ccccc1)O2` (stereo not given) yielded an inhibition of growth at 1000 ppm (Pythium [1]) of 100%, an inhibition of growth at 100 ppm (Pythium [2]) of 95.4% and an inhibition of growth at 100 ppm (Athelia rolfsii [3]) of 57%. For the same compound, the inhibition of growth at 1000 ppm (Athelia rolfsii [4]) was 100%.

`COP1(=S)OCc2cc(C(C)C)ccc2O1` (stereo not given) showed an inhibition of growth at 50 ppm (Pythium [5]) of 50%, an inhibition of growth at 10 ppm (Pythium [6]) of 0% and an inhibition of growth at 1000 ppm (Pythium [1]) of 82.6%. The inhibition of growth at 100 ppm (Pythium [2]) was 71.1%, the inhibition of growth at 10 ppm (Athelia rolfsii [7]) was 62% and the inhibition of growth at 100 ppm (Athelia rolfsii [3]) was 96.9%. The inhibition of growth at 50 ppm (Athelia rolfsii [8]) was 92.5% and the inhibition of growth at 1000 ppm (Athelia rolfsii [4]) was 100%.

`Cc1ccc(OP2(=S)OCc3cc(C(C)C)ccc3O2)c(C(C)C)c1` (stereo not given) was tested, and the inhibition of growth at 1000 ppm (Pythium [1]) was 85.9%, the inhibition of growth at 100 ppm (Pythium [2]) was 26.8% and the inhibition of growth at 100 ppm (Athelia rolfsii [3]) was 62.5%. For the same compound, the inhibition of growth at 1000 ppm (Athelia rolfsii [4]) was 71.3%.

`Cc1ccc(C(C)C)c(OP2(=S)OCc3cc(C(C)C)ccc3O2)c1` (stereo not given) was tested, and the inhibition of growth at 1000 ppm (Pythium [1]) was 85.9%, the inhibition of growth at 100 ppm (Pythium [2]) was 33.8% and the inhibition of growth at 100 ppm (Athelia rolfsii [3]) was 61.9%. For the same compound, the inhibition of growth at 1000 ppm (Athelia rolfsii [4]) was 84.6%.

`COP1(=S)OCc2ccccc2O1` (stereo not given) [SALITHION] was tested, and the inhibition of growth at 1000 ppm (Pythium [1]) was 100%, the inhibition of growth at 100 ppm (Pythium [2]) was 74.8% and the inhibition of growth at 100 ppm (Athelia rolfsii [3]) was 60.7%. The inhibition of growth at 1000 ppm (Athelia rolfsii [4]) was 100%.
